Test results taken from paper PMC7594054, “Design, Synthesis and In Vitro Experimental Validation of Novel TRPV4 Antagonists Inspired by Labdane Diterpenes” (Marine Drugs, 2020).

Columns and labels:
rTRPV4 = target: T1, rTRPV4 (Rattus norvegicus, UniProt Q9ERZ8); assay: TRPV4 calcium influx assay (Fluo-4) in HEK-293 cells overexpressing rat recombinant TRPV4; assay type: cell-based; settings: for IC50: against the effect of GSK1016790A (10 nM) after a 5-min pre-incubation, read-out: IC50 inh. TRPV4; for Efficacy %: as percent of the effect of ionomycin (4 µM), HEK-293 cells overexpressing rTRPV4, means ± SEM, n >= 3
T1 construct: expressed in transfected cells; host or cells: HEK-293
Description: The interaction properties of all homodrimane-derived compounds 1–16, 18–19, and 22–25 with either TRPV type-4 or type-1 were studied in human embryonic kidney (HEK)-293 cells overexpressing either the rat recombinant type-4 (rTRPV4), which shares with the human orthologue ~95% of sequence identity, and the human recombinant type-1 (hTRPV1) channel, evaluating the changes in intracellular calcium levels. […] Cell fluorescence before and after the addition of various concentrations of test compounds was measured normalizing the effects against the response to ionomycin (4 μM). […] Dose-response curve fitting (sigmoidal dose-response variable slope) and parameter estimation were performed with Graph-Pad Prism8® (GraphPad Software Inc., San Diego, CA, USA). All determinations were performed at least in triplicate.

hTRPV1 = target: T2, hTRPV1 (Homo sapiens, UniProt Q8NER1); assay: TRPV1 calcium influx assay (Fluo-4) in HEK-293 cells overexpressing human recombinant TRPV1; assay type: cell-based; settings: for IC50: read-out: IC50 inh TRPV1
T2 construct: expressed in transfected cells; host or cells: HEK-293

HeLa cells = assay: MTT cytotoxicity assay, HeLa cells; assay type: cell-based, human; settings: HeLa cells, 1, 5 and 25 μM, 24 h
Description: (§1) HeLa and A549 cells were seeded at 2 × 10^3 cells/cm^2 density in 24-well plastic plates. One day after plating, compounds 6 and 18 were added to the culture medium for 24 h. Cell viability was evaluated with the 3-(4,5-dimethylthiazol-2-yl)-2,5-diphenyltetrazolium bromide (MTT; 0.5 mg/mL; Sigma-Aldrich, Milan, Italy) reduction assay, and formazan salt formation upon MTT reduction by the mitochondria of living cells was detected spectrophotometrically at 595 nm according to published procedures.
(§2) Figure 2 Cell viability measured in HeLa and A549 cells treated for 24 h with increasing concentration of compound 6 (panel A, C) and 18 (panel B, D). Bar graphs show cell viability measured using the 3-(4,5-dimethylthiazol-2-yl)-2,5-diphenyltetrazolium bromide (MTT) assay. Data are expressed as optical density (OD) at 595 nm, normalized to control (vehicle). The bar is the standard error of the mean (SEM) on 3 independent determinations. Statistically significant differences were accepted when the p-value was at least ≤0.05.

A549 cells = assay: MTT cytotoxicity assay, A549 cells; assay type: cell-based, human; settings: A549 cells, 1, 5 and 25 μM, 24 h
Description: as §1, §2

TRPV4 = settings: cited from earlier work
TRPV1 = tested on: TRPV1; set-up: method as in PMID 30507122; settings: cited from earlier work

T1 sequence (Q9ERZ8 whole entry): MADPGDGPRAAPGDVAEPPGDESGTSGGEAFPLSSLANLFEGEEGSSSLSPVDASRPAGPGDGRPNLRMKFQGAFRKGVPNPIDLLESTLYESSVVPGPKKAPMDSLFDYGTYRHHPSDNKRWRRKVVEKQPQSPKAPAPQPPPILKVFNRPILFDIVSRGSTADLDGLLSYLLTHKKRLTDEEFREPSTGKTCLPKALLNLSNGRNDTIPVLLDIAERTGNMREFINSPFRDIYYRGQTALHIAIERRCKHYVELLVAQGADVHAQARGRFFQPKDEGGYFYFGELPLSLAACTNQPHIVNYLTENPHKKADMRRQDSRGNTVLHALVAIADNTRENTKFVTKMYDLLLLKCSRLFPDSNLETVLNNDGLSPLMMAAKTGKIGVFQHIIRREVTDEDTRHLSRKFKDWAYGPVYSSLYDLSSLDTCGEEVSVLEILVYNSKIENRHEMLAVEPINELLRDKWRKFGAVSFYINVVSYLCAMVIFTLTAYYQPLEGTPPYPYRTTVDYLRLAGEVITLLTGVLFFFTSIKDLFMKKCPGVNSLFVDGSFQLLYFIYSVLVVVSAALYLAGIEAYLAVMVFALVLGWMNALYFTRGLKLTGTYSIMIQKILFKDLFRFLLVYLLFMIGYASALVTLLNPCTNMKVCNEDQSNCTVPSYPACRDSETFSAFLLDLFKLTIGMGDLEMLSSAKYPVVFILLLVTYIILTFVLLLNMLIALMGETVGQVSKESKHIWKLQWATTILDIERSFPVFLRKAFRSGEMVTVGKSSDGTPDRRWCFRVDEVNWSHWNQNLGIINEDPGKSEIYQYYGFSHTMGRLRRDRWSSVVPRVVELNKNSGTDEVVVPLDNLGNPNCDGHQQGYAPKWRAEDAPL
T2 sequence (Q8NER1 whole entry): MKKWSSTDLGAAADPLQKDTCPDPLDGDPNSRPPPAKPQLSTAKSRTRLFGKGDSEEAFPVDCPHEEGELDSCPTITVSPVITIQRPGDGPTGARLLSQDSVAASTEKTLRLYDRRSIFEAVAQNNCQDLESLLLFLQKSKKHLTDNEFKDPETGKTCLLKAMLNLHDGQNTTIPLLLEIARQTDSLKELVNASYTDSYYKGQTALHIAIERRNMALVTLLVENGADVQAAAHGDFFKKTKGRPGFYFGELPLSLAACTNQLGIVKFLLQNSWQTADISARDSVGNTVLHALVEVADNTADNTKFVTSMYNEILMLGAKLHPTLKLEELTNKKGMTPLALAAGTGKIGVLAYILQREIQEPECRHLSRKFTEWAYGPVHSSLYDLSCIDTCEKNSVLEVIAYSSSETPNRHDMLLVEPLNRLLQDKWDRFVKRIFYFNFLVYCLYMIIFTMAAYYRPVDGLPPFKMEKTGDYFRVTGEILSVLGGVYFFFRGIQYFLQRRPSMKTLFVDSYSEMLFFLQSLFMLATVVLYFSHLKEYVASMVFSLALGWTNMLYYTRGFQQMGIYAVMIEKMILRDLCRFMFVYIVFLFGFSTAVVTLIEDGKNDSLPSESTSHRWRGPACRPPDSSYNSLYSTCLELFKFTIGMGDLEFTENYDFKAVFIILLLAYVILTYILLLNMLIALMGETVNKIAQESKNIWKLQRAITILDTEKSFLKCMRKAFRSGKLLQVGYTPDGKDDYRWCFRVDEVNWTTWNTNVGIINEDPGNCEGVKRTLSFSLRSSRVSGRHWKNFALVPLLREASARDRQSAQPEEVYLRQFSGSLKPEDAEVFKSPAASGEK

Compound	activity on rTRPV4 in words (rTRPV4)	IC50 (rTRPV4)	Efficacy % (rTRPV4)	IC50 (hTRPV1)	cytotoxic effect (cell viability, MTT) (HeLa cells)	cytotoxic effect (cell viability, MTT) (A549 cells)	further results
C=C1CC[C@@H]2[C@](C)(CO)[C@H](O)CC[C@@]2(C)[C@@H]1/C=C/C1=CC(C(C[C@@H]2C(=C)CC[C@@H]3[C@](C)(CO)[C@H](O)CC[C@]32C)C2=CCOC2=O)OC1=O (stereo partly shown) [bisandrographolide A]							EC50 (TRPV4; read-out: EC50 (TRPV4 agonist)): 0.79 to 0.95 µM
C/C=C(\C)[C@H]1C(C)=C[C@H]2C[C@@H](C)C[C@@H](C(=O)O)[C@@H]2[C@@]1(C)C(=O)c1cccnc1 [onydecalin A]							IC50 (TRPV4; read-out: IC50 (TRPV4 antagonist)): 45.9 µM; activity towards TRPV1 in words (TRPV1): partial activity

Continued, in another order:

activity on rTRPV4 in words (rTRPV4)	IC50 (rTRPV4)	Efficacy % (rTRPV4)	IC50 (hTRPV1)	Compound	cytotoxic effect (cell viability, MTT) (HeLa cells)	cytotoxic effect (cell viability, MTT) (A549 cells)	further results
potent and selective TRPV4 antagonists	5.3 ± 0.3 µM	<10%	> 100 µM	CC1(C)CCC[C@]2(C)[C@@H](CC(=O)NCc3ccc(Cl)c(Cl)c3)[C@](C)(O)CC[C@@H]12 [Compound 6, N-(3,4-dichlorobenzyl)-2-((1R,2R,4aS,8aS)-2-hydroxy-2,5,5,8a-tetramethyldecahydronaphthalen-1-yl)acetamide]	neither compound caused statistically-significant cytotoxic effects at any tested concentration	neither compound caused statistically-significant cytotoxic effects at any tested concentration	Efficacy % (hTRPV1; as percent of the effect of ionomycin (4 µM), HEK-293 cells overexpressing hTRPV1, means ± SEM, N >= 3): 16.9 ± 0.3%
potent and selective TRPV4 antagonists	5.41 ± 0.07 µM	<10%		CC1(C)CCC[C@]2(C)[C@@H](CC(=O)OCc3ccccc3)[C@](C)(O)CC[C@@H]12 [Compound 18, Benzyl 2-((1R,2R,4aS,8aS)-2-hydroxy-2,5,5,8a-tetramethyldecahydronaphthalen-1-yl)acetate]	neither compound caused statistically-significant cytotoxic effects at any tested concentration	neither compound caused statistically-significant cytotoxic effects at any tested concentration	
	> 100 µM	<10%	> 100 µM	CC1(C)CCC[C@]2(C)[C@@H](CCOC(=O)/C=C/c3ccc4c(c3)OCO4)[C@](C)(O)CC[C@@H]12 [Compound 23, 2-((1R,2R,4aS,8aS)-2-hydroxy-2,5,5,8a-tetramethyldecahydronaphthalen-1-yl)ethyl (E)-3-(benzo[d][1,3]dioxol-5-yl)acrylate]			melting point: 115 to 116 °C
